Measured values taken from PMC8711653, “The Nature of Diamino Linker and Halogen Bonding Define Selectivity of Pyrrolopyrimidine-Based LIMK1 Inhibitors” (Frontiers in Chemistry, 2021).
Where two headings read alike, the source gives them in different places. One block for each molecule: values may come before it.

Assays:
LIMK1 [1] = biological target: T1, LIMK1 (Homo sapiens, UniProt P53667); test: LIMK1 ADP-Glo kinase assay (Promega); type: biochemical; details: 0.1 μM compound
T1 construct: purchased Promega
T1 sequence (P53667 whole entry): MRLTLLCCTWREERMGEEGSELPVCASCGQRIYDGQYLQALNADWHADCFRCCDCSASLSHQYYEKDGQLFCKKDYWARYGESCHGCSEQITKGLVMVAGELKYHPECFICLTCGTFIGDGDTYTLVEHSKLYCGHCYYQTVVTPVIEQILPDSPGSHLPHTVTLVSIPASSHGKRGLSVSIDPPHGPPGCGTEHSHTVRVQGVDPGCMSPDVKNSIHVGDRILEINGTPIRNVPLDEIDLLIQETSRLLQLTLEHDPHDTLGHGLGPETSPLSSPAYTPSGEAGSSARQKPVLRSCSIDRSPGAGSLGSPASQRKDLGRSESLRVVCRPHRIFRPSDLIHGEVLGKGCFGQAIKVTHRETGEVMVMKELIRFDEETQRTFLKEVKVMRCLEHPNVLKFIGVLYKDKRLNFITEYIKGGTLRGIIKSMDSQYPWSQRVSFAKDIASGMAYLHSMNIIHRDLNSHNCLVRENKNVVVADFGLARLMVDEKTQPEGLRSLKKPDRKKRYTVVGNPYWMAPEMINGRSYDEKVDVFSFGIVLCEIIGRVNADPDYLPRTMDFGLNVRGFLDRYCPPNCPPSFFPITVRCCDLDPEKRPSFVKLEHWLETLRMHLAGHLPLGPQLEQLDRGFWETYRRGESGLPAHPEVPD
Description: ADP-Glo kinase assay was performed in 96-well plate format using the Promega kinase assay system. LIMK1 (0.1 μg) and compounds (0.1–100 μM) were dissolved in kinase reaction buffer and incubated for 30 min at rt. The reaction was then initiated by the addition of ATP (10 μM, 5 μl) and incubation for 30 min at 30°C. The reaction was then quenched with addition of 25 μl of ADP-Glo reagent. Kinase detection reagent (50 μl) was added and incubated for 30 min prior to luminescence reading on the BMG Labtech PHERAstar FS plate reader. Kinase assay is performed as duplicate.

LIMK1 [2] = biological target: T1, LIMK1; test: 33P-ATP radiotracer assay, LIMK1 (Reaction Biology Corporation); type: biochemical; details: for IC50: 33P transfer from ATP to cofilin, 10 μM 33P-ATP, 1 μM cofilin, triplicate
Description: (§1) To measure the selectivity against LIMK isoforms, the radiotracer assay measuring the transfer of ^33P from ATP to the substrate was used since there was no ADP-Glo™ kinase assay system available for LIMK2 (Table 2).
(§2) The radiotracer assay of LIMK1 and LIMK2 was performed by Reaction Biology Corporation. Compounds were tested in 10-dose IC50 mode with fivefold series dilution starting at 10 μM. Reactions were carried out at 10 μM ^33P-ATP, 1 μM cofilin substrate, and 50 nM LIMK1 (final concentration). Kinase activity is determined by the transfer or radioactive ^33P from ATP to cofilin substrate. Radiotracer assay is performed as triplicate.

LIMK2 [3] = biological target: T2, LIMK2 (Homo sapiens, UniProt P53671); test: 33P-ATP radiotracer assay, LIMK2 (Reaction Biology Corporation); type: biochemical
T2 construct: purchased Reaction Biology Corporation
T2 sequence (P53671 whole entry): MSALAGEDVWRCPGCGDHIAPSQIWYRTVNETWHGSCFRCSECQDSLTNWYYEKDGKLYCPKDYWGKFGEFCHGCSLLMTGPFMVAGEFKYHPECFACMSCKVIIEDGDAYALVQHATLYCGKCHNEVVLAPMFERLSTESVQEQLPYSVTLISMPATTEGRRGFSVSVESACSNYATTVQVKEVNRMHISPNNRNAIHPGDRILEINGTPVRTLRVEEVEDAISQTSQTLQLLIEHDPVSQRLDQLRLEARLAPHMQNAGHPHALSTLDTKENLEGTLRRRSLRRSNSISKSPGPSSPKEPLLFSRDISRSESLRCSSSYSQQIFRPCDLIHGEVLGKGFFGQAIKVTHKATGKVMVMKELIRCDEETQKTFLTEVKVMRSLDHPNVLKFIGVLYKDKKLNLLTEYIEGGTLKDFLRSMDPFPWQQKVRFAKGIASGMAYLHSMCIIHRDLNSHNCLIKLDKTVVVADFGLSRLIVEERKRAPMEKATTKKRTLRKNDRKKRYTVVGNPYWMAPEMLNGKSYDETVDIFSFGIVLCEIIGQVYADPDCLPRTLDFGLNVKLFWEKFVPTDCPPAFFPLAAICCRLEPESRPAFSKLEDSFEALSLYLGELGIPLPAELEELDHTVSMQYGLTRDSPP
Description: as §1, §2

C6 cells = test: Scratch (wound closure) assay, cell migration velocity; type: cell-based; details: live imaging 24 h, compared to untreated cell
Description: Cofilin, the substrate for LIMK1, regulates the actin skeleton and thus regulates cell migration ([Bravo-Cordero et al., 2013]). To understand the inhibitory effect of compounds 1 and 22–26 in vitro, scratch assays were performed. The artificial wound was created by “scratching” in the middle of the well with confluent C6 cells in culture. Live imaging was captured for 24 h to measure the distance of cell migration (Figure 3; Supplementary video).
The velocity of cell migration is measured using the C6 cell line in the 24-well plate. Cells were seeded at 100,000 cells/well. After 24 h, cells were washed with warm PBS and treated with the inhibitors. Directly following the treatment, cells were moved into a preheated stage-top incubator maintained at 37°C/5% CO2, using the ZEISS Axio Observer live cell microscope, fitted with an Axiocam 702 mono camera. Cells were imaged once every 10 min using a ×10 objective with phase contrast for a 24-h period. Cell migration was analysed using Fiji ImageJ (NIH) and Chemotaxis Migration Tool (ibidi).

LIMK1 [4] = biological target: T1, LIMK1; details: Figure 1A, known inhibitors, ref Harrison et al., 2009, Boland et al., 2015, Yin et al., Yi et al., 2017; cited from earlier work
LIMK2 [5] = biological target: T2, LIMK2; details: Figure 1A, known inhibitors, ref Harrison et al., 2009, Boland et al., 2015, Yin et al., Yi et al., 2017; cited from earlier work
[6] = Promega ADP-Glo kinase assay, Table 1, read-out: % LIMK1 inhibition at 0.1 μM
[7] = Promega ADP-Glo kinase assay, Table 1, read-out: % LIMK1 inhibition at 0.1 μM (dash = no inhibition)
[8] = Promega ADP-Glo kinase assay, Table 2, read-out: % LIMK1 inhibition at 0.1 μM
[9] = 33P transfer from ATP to cofilin, 10 μM 33P-ATP, 1 μM cofilin, triplicate
[10] = ADP-Glo assay, read-out: LIMK1 inhibitory activity at 0.1 μM
[11] = 33P radiotracer assay, top concentration 10 μM

inhibition at 0.1 µM (LIMK1 [1]; [6]): 17.8 ± 7.1%
melting point: 88 to 89 °C
Compound: Cc1c[nH]c2ncnc(NCCNC(=NC#N)Nc3cccc(I)c3)c12 [Compound 10, 2-Cyano-1-(3-iodophenyl)-3-(2-((5-methyl-7H-pyrrolo[2,3-d]pyrimidin-4-yl)amino)ethyl)guanidine]

LIMK1 inhibitory activity at 0.1 μM (in words) (LIMK1 [1]; ADP-Glo assay): completely abolished inhibitory activity
inhibition at 0.1 µM (LIMK1 [1]; [7]): < 0%
melting point: 87 to 88 °C
Compound: Cc1c[nH]c2ncnc(NCCNC(=NC#N)Nc3cccc(Cl)c3)c12 [Compound 8, 1-(3-Chlorophenyl)-2-cyano-3-(2-((5-methyl-7H-pyrrolo[2,3-d]pyrimidin-4-yl)amino)ethyl)guanidine]

inhibition at 0.1 µM (LIMK1 [1]; [8]): 93.2 ± 1.2%
IC50 (LIMK1 [2]): 5.08 µM
IC50 (LIMK2 [3]; [9]): 3.38 µM
melting point: 128 to 129 °C
Compound: Cc1c[nH]c2ncnc(N[C@@H]3CCCC[C@H]3NC(=NC#N)Nc3cccc(I)c3)c12 [Compound 24, 2-Cyano-1-(3-iodophenyl)-3-((1R,2R)-2-((5-methyl-7H-pyrrolo[2,3-d]pyrimidin-4-yl)amino)cyclohexyl)guanidine]

inhibition at 0.1 µM (LIMK1 [1]; [10]): 47%
inhibition at 0.1 µM (LIMK1 [1]; [6]): 47.1 ± 1.6%
melting point: 97 to 98 °C
Compound: Cc1c[nH]c2ncnc(NCCCCNC(=NC#N)Nc3cccc(Br)c3)c12 [Compound 15, 1-(3-Bromophenyl)-2-cyano-3-(4-((5-methyl-7H-pyrrolo[2,3-d]pyrimidin-4-yl)amino)butyl)guanidine]

inhibition at 0.1 µM (LIMK1 [1]; [8]): 94.9 ± 0.8%
IC50 (LIMK1 [2]): 8.36 µM
inhibition of LIMK2 (in words) (LIMK2 [3]; 33P radiotracer assay): no significant inhibition of LIMK2
IC50 (LIMK2 [3]; [11]): > 10 µM
melting point: 128 to 129 °C
Compound: Cc1c[nH]c2ncnc(N[C@H]3CCCC[C@@H]3NC(=NC#N)Nc3cccc(I)c3)c12 [Compound 26, 2-Cyano-1-(3-iodophenyl)-3-((1S,2S)-2-((5-methyl-7H-pyrrolo[2,3-d]pyrimidin-4-yl)amino)cyclohexyl)guanidine]

inhibition at 0.1 µM (LIMK1 [1]; [6]): 66.6 ± 8.8%
melting point: 129 to 130 °C
Compound: Cc1c[nH]c2ncnc(N[C@H]3CC[C@H](NC(=NC#N)Nc4cccc(I)c4)CC3)c12 [Compound 19, 2-Cyano-1-(3-iodophenyl)-3-((1r,4r)-4-((5-methyl-7H-pyrrolo[2,3-d]pyrimidin-4-yl)amino)cyclohexyl)guanidine]

LIMK1 inhibitory activity at 0.1 μM (in words) (LIMK1 [1]; ADP-Glo assay): completely abolished inhibitory activity
inhibition at 0.1 µM (LIMK1 [1]; [7]): < 0%
melting point: 90 to 91 °C
Compound: Cc1c[nH]c2ncnc(NCCCCNC(=NC#N)Nc3cccc(Cl)c3)c12 [Compound 14, 1-(3-Chlorophenyl)-2-cyano-3-(4-((5-methyl-7H-pyrrolo[2,3-d]pyrimidin-4-yl)amino)butyl)guanidine]

inhibition at 0.1 µM (LIMK1 [1]; [6]): 41 ± 2.5%
melting point: 90 to 91 °C
Compound: Cc1c[nH]c2ncnc(NCCCCNC(=NC#N)Nc3cccc(I)c3)c12 [Compound 16, 2-Cyano-1-(3-iodophenyl)-3-(4-((5-methyl-7H-pyrrolo[2,3-d]pyrimidin-4-yl)amino)butyl)guanidine]

inhibition at 0.1 µM (LIMK1 [1]; [8]): 95.5 ± 0.4%
IC50 (LIMK1 [2]): 0.00013 ± 1e-05 µM
IC50 (LIMK2 [3]; [9]): 0.00047 ± 1e-05 µM
melting point: 130 to 131 °C
Compound: Cc1c[nH]c2ncnc(N3CCN(C(=NC#N)Nc4cccc(I)c4)[C@@H](C)C3)c12 [Compound 22, (S)-N′-Cyano-N-(3-iodophenyl)-2-methyl-4-(5-methyl-7H-pyrrolo[2,3-d]pyrimidin-4-yl)piperazine-1-carboximidamide]
cell migration velocity (C6 cells): lowered the migration even further

inhibition at 0.1 µM (LIMK1 [1]; [10]): 69%
inhibition at 0.1 µM (LIMK1 [1]; [6]): 69.2 ± 1.7%
melting point: 127 to 128 °C
Compound: Cc1c[nH]c2ncnc(N[C@H]3CC[C@H](NC(=NC#N)Nc4cccc(Br)c4)CC3)c12 [Compound 18, 1-(3-Bromophenyl)-2-cyano-3-((1r,4r)-4-((5-methyl-7H-pyrrolo[2,3-d]pyrimidin-4-yl)amino)cyclohexyl)guanidine]

LIMK1 inhibitory activity at 0.1 μM (in words) (LIMK1 [1]; ADP-Glo assay): abolished the inhibitory activity
inhibition at 0.1 µM (LIMK1 [1]; [7]): < 0%
melting point: 88 to 89 °C
Compound: Cc1c[nH]c2ncnc(NCCCNC(=NC#N)Nc3cccc(Br)c3)c12 [Compound 12, 1-(3-Bromophenyl)-2-cyano-3-(3-((5-methyl-7H-pyrrolo[2,3-d]pyrimidin-4-yl)amino)propyl)guanidine]

inhibition at 0.1 µM (LIMK1 [1]; [8]): 96.7 ± 0.1%
IC50 (LIMK1 [2]): 2.83 µM
IC50 (LIMK2 [3]; [9]): 2.65 µM
melting point: 127 to 128 °C
Compound: Cc1c[nH]c2ncnc(N[C@@H]3CCCC[C@H]3NC(=NC#N)Nc3cccc(Br)c3)c12 [Compound 23, 1-(3-Bromophenyl)-2-cyano-3-((1R,2R)-2-((5-methyl-7H-pyrrolo[2,3-d]pyrimidin-4-yl)amino)cyclohexyl)guanidine]

inhibition at 0.1 µM (LIMK1 [1]; [6]): 29.4 ± 10.3%
melting point: 86 to 88 °C
Compound: Cc1c[nH]c2ncnc(NCCNC(=NC#N)Nc3cccc(Br)c3)c12 [Compound 9, 1-(3-Bromophenyl)-2-cyano-3-(2-((5-methyl-7H-pyrrolo[2,3-d]pyrimidin-4-yl)amino)ethyl)guanidine]

inhibition at 0.1 µM (LIMK1 [1]; [6]): 15 ± 10.7%
melting point: 88 to 90 °C
Compound: Cc1c[nH]c2ncnc(NCCCNC(=NC#N)Nc3cccc(Cl)c3)c12 [Compound 11, 1-(3-Chlorophenyl)-2-cyano-3-(3-((5-methyl-7H-pyrrolo[2,3-d]pyrimidin-4-yl)amino)propyl)guanidine]

inhibition at 0.1 µM (LIMK1 [1]; [10]): 42%
inhibition at 0.1 µM (LIMK1 [1]; [6]): 41.7 ± 0.1%
melting point: 120 to 122 °C
Compound: Cc1c[nH]c2ncnc(N[C@H]3CC[C@H](NC(=NC#N)Nc4cccc(Cl)c4)CC3)c12 [Compound 17, 1-(3-Chlorophenyl)-2-cyano-3-((1r,4r)-4-((5-methyl-7H-pyrrolo[2,3-d]pyrimidin-4-yl)amino)cyclohexyl)guanidine]

Compound: CN(C)C(=O)Oc1cccc(NC(=O)C2(CN)CCN(c3ncnc4[nH]cc(Cl)c34)CC2)c1 [Compound 4]
IC50 (LIMK1 [4]): 0.024 µM
IC50 (LIMK2 [5]): 0.0016 µM

inhibition at 0.1 µM (LIMK1 [1]; [6]): 94.3 ± 0.2%
IC50 (LIMK1 [2]): 0.00028 ± 1e-05 µM
IC50 (LIMK2 [3]; [9]): 0.00086 ± 5e-05 µM
Compound: Cc1c[nH]c2ncnc(N3CCN(/C(=N/C#N)Nc4cccc(Br)c4)[C@@H](C)C3)c12 [Compound 1, reference compound]
cell migration velocity (C6 cells): reduced the cell velocity by twofold

inhibition at 0.1 µM (LIMK1 [1]; [6]): 17.8 ± 7.1%
melting point: 91 to 93 °C
Compound: Cc1c[nH]c2ncnc(NCCCNC(=NC#N)Nc3cccc(I)c3)c12 [Compound 13, 2-Cyano-1-(3-iodophenyl)-3-(3-((5-methyl-7H-pyrrolo[2,3-d]pyrimidin-4-yl)amino)propyl)guanidine]

inhibition at 0.1 µM (LIMK1 [1]; [8]): 96 ± 0.5%
inhibition at 10 µM (LIMK1 [2]; 10 μM compound, 33P radiotracer assay): 47%
inhibition of LIMK2 (in words) (LIMK2 [3]; 33P radiotracer assay): no significant inhibition of LIMK2
IC50 (LIMK2 [3]; [11]): > 10 µM
melting point: 127 to 128 °C
Compound: Cc1c[nH]c2ncnc(N[C@H]3CCCC[C@@H]3NC(=NC#N)Nc3cccc(Br)c3)c12 [Compound 25, 1-(3-Bromophenyl)-2-cyano-3-((1S,2S)-2-((5-methyl-7H-pyrrolo[2,3-d]pyrimidin-4-yl)amino)cyclohexyl)guanidine]
